Assay results: PubChem BioAssay AID328 (DTP/NCI, 2004)
Where “and” joins values, the source holds several entries; their conditions need not be identical. Identical values can stand only once. Toxic doses and inconclusive results are not listed.

Tested on: BDF1 mice, P388 leukemia ip, median survival T/C
Experiment: NCI In Vivo Anticancer Drug Screen. Data for tumor model P388 Leukemia (intraperitoneal) in B6D2F1 (BDF1) mice
Conditions: endpoint: median survival time, higher = longer survival
Method in brief: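 Steps: implant the tumour, treat one group with compound and another with vehicle, record survival, then divide treated by control.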

[1] = dose: 100.0 mg/kg/injection, schedule: Q01DX009 (ip), vehicle: Klucel (hydroxypropylcellulose) (HPC)
[2] = dose: 200.0 mg/kg/injection, schedule: Q01DX009 (ip), vehicle: Klucel (hydroxypropylcellulose) (HPC)
[3] = dose: 50.0 mg/kg/injection, schedule: Q04DX003 (ip), vehicle: saline
[4] = dose: 100.0 mg/kg/injection, schedule: Q04DX003 (ip), vehicle: saline
[5] = dose: 100.0 mg/kg/injection, schedule: Q04DX003 (ip), vehicle: Klucel (hydroxypropylcellulose) (HPC)
[6] = dose: 200.0 mg/kg/injection, schedule: Q04DX003 (ip), vehicle: Klucel (hydroxypropylcellulose) (HPC)
[7] = dose: 100.0 mg/kg/injection, schedule: Q01DX009 (ip), vehicle: saline with Tween-80
[8] = dose: 200.0 mg/kg/injection, schedule: Q01DX009 (ip), vehicle: saline with Tween-80
[9] = dose: 25.0 mg/kg/injection, schedule: Q01DX009 (ip), vehicle: saline
[10] = dose: 50.0 mg/kg/injection, schedule: Q01DX009 (ip), vehicle: saline
[11] = dose: 12.5 mg/kg/injection, schedule: Q01DX009 (ip), vehicle: saline
[12] = dose: 100.0 mg/kg/injection, schedule: Q04DX003 (ip), vehicle: saline with Tween-80
[13] = dose: 200.0 mg/kg/injection, schedule: Q04DX003 (ip), vehicle: saline with Tween-80
[14] = dose: 400.0 mg/kg/injection, schedule: Q04DX003 (ip), vehicle: saline with Tween-80
[15] = dose: 12.5 mg/kg/injection, schedule: Q01DX009 (ip), vehicle: saline with Tween-80
[16] = dose: 25.0 mg/kg/injection, schedule: Q01DX009 (ip), vehicle: saline with Tween-80
[17] = dose: 50.0 mg/kg/injection, schedule: Q01DX009 (ip), vehicle: Klucel (hydroxypropylcellulose) (HPC)
[18] = dose: 50.0 mg/kg/injection, schedule: Q01DX009 (ip), vehicle: saline with Tween-80
[19] = dose: 100.0 mg/kg/injection, schedule: Q01DX009 (ip), vehicle: saline

For `CC(C)(O)c1cnc(OCc2ccccc2)nc1OCc1ccccc1`, which T/C (dose: 100.0 mg/kg/injection, schedule: Q01DX001 (ip), vehicle: Klucel (hydroxypropylcellulose) (HPC)) is on record?
Its T/C is 109 % of control.

And the T/C [1]?
The T/C was 95 % of control.

What about the T/C (dose: 200.0 mg/kg/injection, schedule: Q01DX001 (ip), vehicle: Klucel (hydroxypropylcellulose) (HPC)) of the same molecule?
The T/C was 104 % of control.

And the T/C [2]?
The T/C was 91 % of control.

What about the T/C (dose: 400.0 mg/kg/injection, schedule: Q01DX001 (ip), vehicle: Klucel (hydroxypropylcellulose) (HPC)) of the same molecule?
Its T/C is 95 % of control.

What about the T/C (dose: 400.0 mg/kg/injection, schedule: Q01DX009 (ip), vehicle: Klucel (hydroxypropylcellulose) (HPC)) of the same molecule?
Its T/C is 86 % of control.

With `O=C(O)c1nc2nc(Cl)c(Cl)nc2[nH]1` as the molecule, how does the T/C [3] read?
Its T/C is 111 % of control.

And the T/C [4]?
The T/C was 97 % of control.

What about the T/C (dose: 200.0 mg/kg/injection, schedule: Q04DX003 (ip), vehicle: saline) of the same molecule?
Its T/C is 116 % of control.

How did the T/C [5] turn out when `c1ccc2c3nc(nc2c1)CCCCCCCN3` was run?
The T/C was 109 % of control.

What about the T/C [6] of the same molecule?
The T/C was 94 % of control.

`O=[N+]([O-])c1ccc(Cl)c2nonc12` was tested. Which T/C (dose: 15.0 mg/kg/injection, schedule: Q01DX009 (ip), vehicle: saline with Tween-80) did it give?
Its T/C is 103 % of control.

What does the source list for `O=NN(CS(=O)(=O)O)c1ccccc1`?
T/C (dose: 50.0 mg/kg/injection, schedule: Q01DX001 (ip), vehicle: saline with Tween-80): 104 % of control; T/C (dose: 50.0 mg/kg/injection, schedule: Q04DX003 (ip), vehicle: Klucel (hydroxypropylcellulose) (HPC)): 104 % of control; T/C (dose: 100.0 mg/kg/injection, schedule: Q01DX001 (ip), vehicle: saline with Tween-80): 104 % of control; T/C [1]: 104 % of control; T/C [5]: 113 % of control; T/C (dose: 200.0 mg/kg/injection, schedule: Q01DX001 (ip), vehicle: saline with Tween-80): 122 % of control; T/C [2]: 108 % of control; T/C [6]: 109 % of control

For `OCc1cc2ccccc2cc1O`, which T/C [5] is on record?
The T/C was 90 % of control.

And the T/C [6]?
Its T/C is 109 % of control.

And the T/C (dose: 400.0 mg/kg/injection, schedule: Q04DX003 (ip), vehicle: Klucel (hydroxypropylcellulose) (HPC))?
The T/C was 104 % of control.

Which T/C [7] does the source give for `Cc1ccc(C)c2c1CCC2C` (centres undefined) here?
Its T/C is 123 % of control.

And the T/C [8]?
The T/C was 96 % of control.

What does the source list for `CCCCN(CCCC)CCCC#N`?
T/C [9]: 116 % of control; T/C (dose: 25.0 mg/kg/injection, schedule: Q04DX003 (ip), vehicle: saline): 100 % of control; T/C [10]: 116 % of control; T/C [3]: 96 % of control; T/C (dose: 66.0 mg/kg/injection, schedule: Q01DX009 (ip), vehicle: saline with Tween-80): 120 % of control; T/C [4]: 103 % of control

How did the T/C [11] turn out when `CN(C)c1ccc(/C=C/c2ccc3ccccc3[n+]2C)cc1` was run?
The T/C was 88 % of control.

What does the source list for `ClCCn1cnc2c(SCc3ccccc3)ncnc21`?
T/C [12]: 100 % of control; T/C [13]: 100 % of control; T/C [14]: 100 % of control

With `CCC/C(C)=N/Nc1ccccn1` as the molecule, how does the T/C (dose: 12.5 mg/kg/injection, schedule: Q01DX009 (ip), vehicle: Klucel (hydroxypropylcellulose) (HPC)) read?
Its T/C is 105 % of control.

What about the T/C [15] of the same molecule?
Its T/C is 95 % of control.

And the T/C (dose: 25.0 mg/kg/injection, schedule: Q01DX009 (ip), vehicle: Klucel (hydroxypropylcellulose) (HPC))?
Its T/C is 95 % of control and 110 % of control.

What about the T/C [16] of the same molecule?
Its T/C is 100 % of control.

And the T/C [17]?
The T/C was 100 % of control and 120 % of control.

And the T/C [18]?
The T/C was 91 % of control and 118 % of control.

And the T/C [10]?
Its T/C is 120 % of control.

Which results are given for `NC(=S)N/N=C/c1ccc(N)cn1`?
T/C (dose: 3.13 mg/kg/injection, schedule: Q01DX009 (ip), vehicle: saline with Tween-80): 160 % of control; T/C (dose: 6.25 mg/kg/injection, schedule: Q01DX009 (ip), vehicle: saline with Tween-80): 172 % of control and 211 % of control

What does the source list for `CC(=O)O.CC(=O)O.[Co+2].[NH-]C(CCC(N)=O)C(=O)O.[NH-]C(CCC(N)=O)C(=O)O` (centres undefined)?
T/C [15]: 87 % of control; T/C [16]: 93 % of control; T/C [18]: 98 % of control

`CCB1OCC2OB(CC)OC2C2OB(CC)OC2CO1` (centres undefined) was tested. Which T/C [10] did it give?
The T/C was 100 % of control.

What about the T/C [19] of the same molecule?
Its T/C is 97 % of control.

What about the T/C (dose: 200.0 mg/kg/injection, schedule: Q01DX009 (ip), vehicle: saline) of the same molecule?
Its T/C is 93 % of control.

What does the source list for `COC(C(=O)C(O)C(C)O)C1Cc2cc3cc(OC4CC(OC5CC(O)C(O)C(C)O5)C(O)C(C)O4)c(C)c(O)c3c(O)c2C(=O)C1OC1CC(OC2CC(O)C(OC3CC(C)(O)C(O)C(C)O3)C(C)O2)C(O)C(C)O1` (centres undefined)?
T/C (dose: 0.03 mg/kg/injection, schedule: Q01DX009 (ip), vehicle: saline): 101 % of control; T/C (dose: 0.06 mg/kg/injection, schedule: Q01DX009 (ip), vehicle: saline): 106 % of control; T/C (dose: 0.13 mg/kg/injection, schedule: Q04DX003 (ip), vehicle: saline): 98 % of control; T/C (dose: 0.25 mg/kg/injection, schedule: Q01DX009 (ip), vehicle: saline): 150 % of control; T/C (dose: 0.25 mg/kg/injection, schedule: Q04DX003 (ip), vehicle: saline): 107 % of control; T/C (dose: 0.5 mg/kg/injection, schedule: Q01DX009 (ip), vehicle: saline): 170 % of control; T/C (dose: 0.5 mg/kg/injection, schedule: Q04DX003 (ip), vehicle: saline): 101 % of control; T/C (dose: 1.0 mg/kg/injection, schedule: Q01DX009 (ip), vehicle: saline): 120 % of control

`NCCc1c[nH]c2ccc(F)cc12` was tested. Which T/C [11] did it give?
The T/C was 91 % of control.

What about the T/C [9] of the same molecule?
Its T/C is 98 % of control.

And the T/C [10]?
The T/C was 98 % of control.

What about the T/C [19] of the same molecule?
Its T/C is 91 % of control.

What does the source list for `CC[C@@H]1C[C@@H]2CN3CCc4c([nH]c5ccc(OC)cc45)C(C(=O)OC)(C2)C13`?
T/C [17]: 108 % of control; T/C [1]: 113 % of control; T/C [2]: 113 % of control

Which T/C (dose: 1.2 mg/kg/injection, schedule: Q01DX009 (ip), vehicle: Klucel (hydroxypropylcellulose) (HPC)) does the source give for `NC(N)=N/N=C(/c1ccccc1)c1ccc(F)cc1` here?
Its T/C is 115 % of control.

What about the T/C (dose: 5.0 mg/kg/injection, schedule: Q01DX009 (ip), vehicle: Klucel (hydroxypropylcellulose) (HPC)) of the same molecule?
The T/C was 104 % of control and 105 % of control.

What about the T/C (dose: 5.0 mg/kg/injection, schedule: Q01DX009 (ip), vehicle: saline) of the same molecule?
Its T/C is 95 % of control.

And the T/C (dose: 10.0 mg/kg/injection, schedule: Q01DX009 (ip), vehicle: Klucel (hydroxypropylcellulose) (HPC))?
Its T/C is 100 % of control and 109 % of control.

And the T/C (dose: 10.0 mg/kg/injection, schedule: Q01DX009 (ip), vehicle: saline)?
The T/C was 100 % of control.

And the T/C (dose: 20.0 mg/kg/injection, schedule: Q01DX009 (ip), vehicle: saline)?
The T/C was 112 % of control.

Which results are given for `CCc1c2cc(OC)c(OC)cc2cc2c3cc(OC)c(OC)cc3cc[n+]12` (tested in a mixture with another compound)?
T/C [3]: 150 % of control; T/C (dose: 75.0 mg/kg/injection, schedule: Q04DX003 (ip), vehicle: saline): 150 % of control; T/C [4]: 166 % of control; T/C (dose: 150.0 mg/kg/injection, schedule: Q04DX003 (ip), vehicle: saline): 158 % of control

`CCOP(=S)(OCC)Sc1cnn(C)c(=O)c1SCC` was tested. Which T/C (dose: 50.0 mg/kg/injection, schedule: Q01DX005 (ip), vehicle: saline with Tween-80) did it give?
The T/C was 100 % of control.

And the T/C (dose: 100.0 mg/kg/injection, schedule: Q01DX005 (ip), vehicle: saline with Tween-80)?
The T/C was 99 % of control.

What about the T/C (dose: 200.0 mg/kg/injection, schedule: Q01DX005 (ip), vehicle: saline with Tween-80) of the same molecule?
Its T/C is 100 % of control.

How did the T/C [12] turn out when `O=C(O)C(Cc1ccccc1)N=Cc1c(O)ccc2ccccc12` (centres undefined) was run?
Its T/C is 105 % of control.

What about the T/C [13] of the same molecule?
Its T/C is 114 % of control.

And the T/C [14]?
The T/C was 89 % of control.

With `COc1cc(NCCCCC(C)N)c2nccc(C)c2c1` (centres undefined) as the molecule, how does the T/C [10] read?
Its T/C is 105 % of control.

Which T/C (dose: 9.37 mg/kg/injection, schedule: Q01DX009 (ip), vehicle: Klucel (hydroxypropylcellulose) (HPC)) does the source give for `COc1cccc(N2C(N)=NC(N)=NC2(C)C)c1` here?
Its T/C is 108 % of control.

What about the T/C (dose: 18.75 mg/kg/injection, schedule: Q01DX009 (ip), vehicle: Klucel (hydroxypropylcellulose) (HPC)) of the same molecule?
Its T/C is 93 % of control.

Which T/C (dose: 50.0 mg/kg/injection, schedule: Q04DX002 (ip), vehicle: saline with Tween-80) does the source give for `O=C(Nc1nncs1)c1ccncc1` here?
The T/C was 90 % of control.

And the T/C (dose: 200.0 mg/kg/injection, schedule: Q04DX002 (ip), vehicle: saline with Tween-80)?
Its T/C is 152 % of control.

What about the T/C (dose: 400.0 mg/kg/injection, schedule: Q04DX002 (ip), vehicle: saline with Tween-80) of the same molecule?
Its T/C is 100 % of control.

Which results are given for `O=C(O)c1cc(-c2cccc3ccccc23)nc2cc3ccccc3cc12`?
T/C [7]: 99 % of control; T/C [8]: 108 % of control
